US12629370B2, “Treatment of prostate cancer” (Sumitomo Pharma Co., Ltd., priority 2016, dated 2026)

Assays:
serum testosterone = experiment: Example 7: serum testosterone lowering in healthy men; assay type: in vivo, human; details: for mean serum testosterone at end of 16 days: baseline 10.40 nmol/L
Protocol: (§1) FSH, DHT, and insulin-like growth factor 1 (IGF-1; Parts 3 and 4 only) were measured in a subset of samples. Serum testosterone was assayed using a conventional immunoassay for screening (LLOQ=0.4 nmol/L). A validated LC/MS/MS method, with an LLOQ of 0.173 nmol/L and a ULOQ of 10.425 nmol/L, was used for all subsequent baseline (i.e., the subject's serum hormone levels prior to treatment commencing) and postdose measurements.
Pharmacodynamic measures included serum concentrations of testosterone, DHT, LH, and FSH. In Part 2, the number and percentage of subjects with average serum testosterone levels less than 0.69 nmol/L occurring during the second week of dosing were tabulated. In Parts 3 and 4, the number and percentage of subjects with serum testosterone levels consistently less than 0.69 nmol/L from Day 14 through Day 28 were tabulated.

serum DHT = experiment: Example 7: serum DHT in healthy men; assay type: in vivo, human
Protocol: as §1

[1] = system: patients with advanced prostate cancer; experiment: Example 8: treatment-emergent adverse events (safety population)
Protocol: The core tablets were coated with a film coating comprising hypromellose 2910 (21.36 mg), titanium dioxide (2.4 mg), and red ferric oxide (0.06 mg).
For patients receiving leuprolide acetate (leuprorelin), on-treatment study visits occurred at baseline (day 1, week 1), day 1 of weeks 2, 3, and 5, and then every 4 weeks until week 25, and then at 12 week intervals (week 37 and 49). Patients on leuprorelin received their final injection at week 37, day 1, and the week 49, day 1 visit was considered the end of leuprorelin exposure. Patients receiving leuprorelin at visits at 16 (EOT), 20 (follow-up visit), and 24 (EOS) weeks after the last leuprorelin injection.
Efficacy and safety analyses were conducted using a safety population (received ≥1 dose of study drug). […] Safety was assessed by recording the incidence, severity, and types of treatment-emergent adverse events; by physical examination (including slit lamp examination of the anterior eye); and by evaluating changes from baseline in weight, vital signs, 12-lead electrocardiogram (ECG), and clinical laboratory parameters. […] Adverse events were coded using the Medical Dictionary for Regulatory Activities version 19.0 and graded according to National Cancer Institute Common Terminology Criteria version 4.03 (Tables 7 and 8). Safety-related haematology, chemistry, and urinalysis measurements were taken at each study visit and analysed at a central laboratory (LabCorp). Phospholipidosis was assessed as part of the safety assessments.

FSH = experiment: Example 9: FSH; assay type: in vivo, human
Protocol: Eligible male patients were aged ≥18 years with a histologically confirmed diagnosis of localized, intermediate-risk prostate cancer, for whom 6-month neoadjuvant and adjuvant androgen deprivation therapy (ADT) to external beam radiation therapy (EBRT) was indicated. The criteria for establishing intermediate-risk prostate cancer included the presence of one of the following, without any high-risk feature: T2b-T2c disease, Gleason score 7, or prostate-specific antigen (PSA) 10-20 ng/mL. Additional inclusion criteria included: EBRT scheduled to begin ≥12 weeks after baseline visit; screening serum testosterone >150 ng/dL (5.2 nmol/L); screening PSA concentration >2 ng/ml; body mass index ≥18.0 at screening or baseline (i.e., the subject's BMI prior to treatment commencing); Eastern Cooperative Oncology Group performance status of 0 or 1 at screening. Based on investigator discretion and clinical assessment of the patient's overall medical and disease status, participation was allowed for older patients with high-risk disease (e.g., based on Gleason score or tumor status) who were deemed likely to benefit from 6 months of neoadjuvant/adjuvant ADT. Most patients had intermediate-risk disease. However, a few patients, based on Gleason score or tumor, node, and metastasis staging system, were technically of higher than intermediate risk.
Both treatment arms received treatment for 24 weeks. Patients remained on treatment for at least 12 weeks before the start of external beam radiation treatment (EBRT), which was initiated for most patients between Week 13, Day 1 and Week 15, Day 1. EBRT began no later than day 1, week 17.
Patients were evaluated every 4 weeks during the treatment period (including day 1, week 25), at end of treatment (defined as week 29), during follow-up (week 33), and at end of study (EOS).
Samples for testosterone, luteinizing hormone (LH), FSH, and PSA concentrations were taken at screening, on day 1 of the first week (additionally days 2 and 4 for testosterone and LH), and on day 1 of weeks 2, 3, 5, 9, 13, 17, 21, 25, 29, 33, and 37 thereafter. […] Suppression of FSH was less profound than that of LH, but consistent with the literature, and was greater than that observed with GnRH agonists.

Structure (SMILES): CONC(=O)Nc1ccc(-c2sc3c(c2CN(C)C)c(=O)n(-c2ccc(OC)nn2)c(=O)n3Cc2c(F)cccc2F)cc1 [Compound 1, N-(4-(1-(2,6-difluorobenzyl)-5-((dimethylamino)methyl)-3-(6-methoxy-3-pyridazinyl)-2,4-dioxo-1,2,3,4-tetrahydrothieno[2,3-d]pyrimidin-6-yl)phenyl)-N′-methoxyurea]
- suppression of serum LH and testosterone during the second week (serum testosterone; 20 mg QD, 14 days): insufficient in maintaining adequate suppression
- castration outcome (serum testosterone; 40 mg QD, 28 days): ineffective in maintaining castration between Days 14 and 28
- castration outcome (serum testosterone; 60 mg QD, 28 days): intermediate to those of 40 and 80 mg
- time to reach castrate level (serum testosterone; 80 mg once daily): up to 21 days
- castration outcome (serum testosterone; 320 mg day 1, 160 mg day 2, 40 mg day 3 to 28): did not maintain castrate level
- castration outcome (serum testosterone; 360 mg Day 1 and 40 mg day 2 to 14): rapid castration level and sustained castration level
- time to castrate levels (<50 ng/dL) (serum testosterone; 360 mg single dose): ≤ 24 h
- effective medical castration (serum testosterone; 40 to 180 mg daily (14 days) and 80 to 160 mg daily (28 days)): consistently achieved
- profound castration threshold (average serum testosterone <0.69 nmol/L) (serum testosterone; 14 days at 40, 80 and 180 mg): achieved
- castration during third and fourth weeks (serum testosterone; 28 days, 160 mg (Part 3) and 80 mg (Part 4)): effective at achieving medical (<1.73 nmol/L) and profound (<0.69 nmol/L) castration
- mean serum testosterone at end of 16 days (serum testosterone; Part 2, 80 mg): 0.3565 nmol/L
- mean serum testosterone at end of 16 days (serum testosterone; Part 2, 180 mg): 0.4320 nmol/L
- minimal fully effective / recommended maintenance dose for sustained medical castration (serum testosterone; in vivo): ≥ 80 mg QD
- effective medical castration (serum testosterone; maintenance doses of 80, 160 and 180 mg QD): consistently achieved
- duration of mean serum testosterone suppression (serum testosterone; single doses of 80, 120, 180 and 360 mg): maintained through 36 hours postdose
- time postdose at which mean serum DHT began to decrease (serum DHT; Part 1 single doses 80-360 mg): 2 h
- mean serum dihydrotestosterone at end of 16 days (serum DHT; Part 2, 80 mg, baseline 1.883 nmol/L): 1.095 nmol/L
- mean serum dihydrotestosterone at end of 16 days (serum DHT; Part 2, 180 mg, baseline 1.882 nmol/L): 0.865 nmol/L
- Acute coronary syndrome, Grade ≥3 ([1]; 80 mg QD): 0 n (%)
- Death (Table 7) ([1]; 80 mg QD): 1 (2) n (%)
- Death, Grade ≥3 (Table 8) ([1]; 80 mg QD): 0 n (%)
- Sudden death, Grade ≥3 ([1]; 80 mg QD): 0 n (%)
- Acute coronary syndrome, Grade ≥3 ([1]; 120 mg QD): 1 (2) n (%)
- Death (Table 7) ([1]; 120 mg QD): 0 (0) n (%)
- Death, Grade ≥3 (Table 8) ([1]; 120 mg QD): 1 (2) n (%)
- Sudden death, Grade ≥3 ([1]; 120 mg QD): 1 (2) n (%)
- overall safety profile ([1]; in vivo): appeared similar to that seen in the smaller observational leuprorelin cohort
- FSH level before administration (FSH; Baseline): 11.826 IU/L
- FSH level (FSH; Week 2, Day 1): 2.363 IU/L
- mean FSH level (FSH; Week 25, Day 1): 1.475 IU/L
